19 compounds from patent publication US8921380B2, “Pyrazolo[1,5-a] pyrimidine compounds as CB1 receptor antagonist” (Mitsubishi Tanabe Pharma Corporation, priority 2006, dated 2014) can be followed below.

A value given as a limit tells only on which side of the number the result lay.

For orientation: IC50 means the concentration that inhibits the measured activity by half.

In one experiment the target is T1, Human CB1 receptor (Homo sapiens, UniProt P21554).
T1 construct: host or cells: CHO (hCB1/CHO), membrane fraction
T1 sequence (P21554 whole entry): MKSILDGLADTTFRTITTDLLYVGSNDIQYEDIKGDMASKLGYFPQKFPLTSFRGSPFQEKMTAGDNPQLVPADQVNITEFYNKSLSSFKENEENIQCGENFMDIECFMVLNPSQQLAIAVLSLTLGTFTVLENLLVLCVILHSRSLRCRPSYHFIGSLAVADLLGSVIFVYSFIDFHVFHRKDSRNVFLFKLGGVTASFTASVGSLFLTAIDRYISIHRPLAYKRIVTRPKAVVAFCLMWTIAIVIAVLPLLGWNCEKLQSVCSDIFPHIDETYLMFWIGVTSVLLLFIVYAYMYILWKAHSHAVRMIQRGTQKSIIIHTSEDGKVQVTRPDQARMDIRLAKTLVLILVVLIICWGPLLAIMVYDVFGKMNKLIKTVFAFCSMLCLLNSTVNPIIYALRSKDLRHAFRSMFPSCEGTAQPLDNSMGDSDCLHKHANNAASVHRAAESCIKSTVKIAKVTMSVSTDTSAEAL
The experiment can be described thus: Human CB1 receptor binding assay ([3H]-CP55940, hCB1/CHO membrane fraction). The conditions noted are these: Experiment 1; inhibition of [3H]-CP55940 binding to hCB1/CHO membranes. As for the experimental part: [Human CB1 Receptor Binding Assay]
(1) Preparation of Human CB1 Receptor (Membrane Fraction):
Human CB1-expressing cell line: hCB1/CHO (#ES-110-C, Euroscreen)
Buffer A: 50 mM tris-HCl (pH 7.5) containing ethylenediaminetetraacetic acid (2.5 mM), MgCl2 (5 mM) and sucrose (200 mM)
Method) The receptor-expressing cells cultivated in the above medium were washed with phosphate buffer (×2 times) and thereto was added Buffer A (2 mL) under ice-cooling or 4° C. (the following procedures were also carried out at the same temperature). The cells were collected by using a cell-scraper, treated by a microtip-type ultrasonicator for 20 seconds (pulse-on: 2 sec, pulse-off: 1 sec) and centrifuged (500×g, 15 min). The supernatant was separated and centrifuged (43000×g, 60 min). The resultant pellet was suspended in Buffer A and homogenized with a potter-type homogenizer. To the homogenate was added an equal volume of 80% glycerol and stored at −80° C.
(2) Procedure of CB1 Receptor Binding Assay:
Buffer B: 50 mM tris-HCl (pH 7.5) containing ethylenediaminetetraacetic acid (2.5 mM), MgCl2 (5 mM) and bovine serum albumine (2 mg/mL, fatty acid-free, SIGMA-A7030)
Buffer C: 50 mM tris-HCl (pH 7.5) containing ethylenediaminetetraacetic acid (2.5 mM), MgCl2 (5 mM) and bovine serum albumine (2 mg/mL, SIGMA-A7906)
Coating solution: 0.3% ethyleneimine polymer
Radioligand: [^3H]-CP55940 (30 nM, 7992 dpm/μL, PerkinElmer, #NET-1051) prepared by diluting 8.3 μM solution of the radioligand with Buffer B
Method) Each well of the assay plate (96-well, Corning Costar Code#3371) was filled with Buffer B (140 μL), a solution of each test compound in dimethylsulfoxide (20 μL, […]), radioligand (20 μL) and membrane preparation (20 μL, 0.5 to 8.0 μg/20 μL) and the mixture was incubated at room temperature for 90 minutes to proceed the binding reaction. The reaction mixture was filtered through Unifilter GF/B (Packard#6005177) presoaked with the above coating solution to collect the membrane fraction. The plate was washed with Buffer C (200 μL×10 times) and dried at 50° C. for 1 hour and Microscinti 40 (40 μL/well) was added to each well. The bound radiolabel was quantitated by a scintilation counter (Top Count NXT, Packard). IC50 value of each test compound against the radioligand-binding to CB1 receptors was calculated on the basis of the quantitated radiolabel activity by using Microsoft Excel 2000 (Microsoft).
(§1) a) Human CB1 receptor-binding assay: The binding assay was conducted in the same manner as described in Experiment 1.
Regarding `CNC(=O)C1(NC(=O)c2cnn3c(-c4ccc(Cl)cc4)c(-c4ccccc4Cl)cnc23)CCCCC1` [Example A5, 6-(2-chlorophenyl)-7-(4-chlorophenyl)-3-[N-[1-(N-methylcarbamoyl)cyclohexyl]-carbamoyl]pyrazolo[1,5-a]pyrimidine], the IC50 was in the range of 10 to 100 nM. Still for that read-out and setting: the result for `CC1(NC(=O)c2cnn3c(-c4ccc(Cl)cc4)c(-c4ccccc4Cl)cnc23)CCCCC1` [Example A10] reads 10 to 100 nM.

For the compound `Cc1nn2c(-c3ccc(C(F)(F)F)cc3)c(-c3ccccc3Cl)cnc2c1C(=O)NC1(C#N)CCCCC1` [Example A13], the IC50 lay in the range of 10 to 100 nM. Still for that read-out and setting: the result for `CC(NC(=O)c1cnn2c(-c3ccc(Cl)cc3F)c(-c3ccccc3Cl)cnc12)c1ccccn1` (centres unmarked) [Example A15] reads 10 to 100 nM. The same measure, in the same setting: the result for `CNS(=O)(=O)c1nn2c(-c3ccc(Cl)cc3)c(-c3ccccc3Cl)cnc2c1C(=O)N[C@@H]1CCS(=O)(=O)C1` [Example B6] reads 10 to 100 nM; that for `CN(NC(=O)c1c(S(=O)(=O)N(C)C)nn2c(-c3ccc(Cl)cc3)c(-c3ccccc3Cl)cnc12)c1ccccn1` [Example B12], 10 to 100 nM.

`NS(=O)(=O)c1nn2c(-c3ccc(Cl)cc3)c(-c3ccccc3Cl)cnc2c1C(=O)NN1CCCC1` [Example B14]: the IC50 was < 10 nM. The same measure, in the same setting: the figure for `CN(NC(=O)c1c(S(N)(=O)=O)nn2c(-c3ccc(Cl)cc3)c(-c3ccccc3Cl)cnc12)c1ccccn1` [Example B15] is < 10 nM; for `N#Cc1ccccc1-c1cnc2c(C(=O)NC3CCCC3)c(S(N)(=O)=O)nn2c1-c1ccc(Cl)cc1` [Example B23] it is < 10 nM. For `NC(=O)CNS(=O)(=O)c1nn2c(-c3ccc(Cl)cc3)c(-c3ccccc3Cl)cnc2c1C(=O)NC1CCCC1` [Example B26], the half-inhibitory concentration (IC50) was in the range of 10 to 100 nM. The same measure, in the same setting: the figure for `NC(=O)C1(NC(=O)c2c(S(N)(=O)=O)nn3c(-c4ccc(Cl)cc4)c(-c4ccccc4Cl)cnc23)CCCCC1` [Example B30, 3-[N-(1-carbamoylcyclohexyl)carbamoyl]-6-(2-chlorophenyl)-7-(4-chlorophenyl)-2-sulfamoylpyrazolo[1,5-a]pyrimidine] is 10 to 100 nM.

Still in this experiment, the particulars now being: Experiment 2; same method as Experiment 1.
For the compound `NC(=O)C1(NC(=O)c2cnn3c(-c4ccc(Cl)cc4)c(-c4ccccc4Cl)cnc23)CCS(=O)(=O)CC1` [Example A3, 3-[N-(4-carbamoyl-1,1-dioxo-tetrahydrothiopyran-4-yl)carbamoyl]-6-(2-chlorophenyl)-7-(4-chlorophenyl)pyrazolo[1,5-a]pyrimidine], the IC50 fell in the range of 10 to 100 nM. On the same count and under the same terms, the figure for `CC1(NC(=O)c2c(OCCO)nn3c(-c4ccc(Cl)cc4)c(-c4ccccc4Cl)cnc23)CCS(=O)(=O)C1` (centres unmarked) [Example A140] is < 10 nM; for `N#Cc1ccccc1-c1cnc2c(C(=O)NC3(C(N)=O)CCS(=O)(=O)CC3)cnn2c1-c1ccc(C(F)(F)F)cc1` [Example A146] it is 10 to 100 nM.

Compound `Cc1nn2c(-c3ccc(Cl)cc3)c(-c3ccccc3Cl)cnc2c1C(=O)NC1(C(N)=O)CCS(=O)(=O)CC1` [Example A175] displayed a half-inhibitory concentration (IC50) of 10 to 100 nM. The same measure, in the same setting: the result for `CC1(NC(=O)c2c(CO)nn3c(-c4ccc(C(F)(F)F)cc4)c(-c4ccccc4Cl)cnc23)CCS(=O)(=O)CC1` [Example B32, 6-(2-chlorophenyl)-7-(4-trifluoromethylphenyl)-2-hydroxymethyl-3-[N-(4-methyl-1,1-dioxotetrahydrothiopyran-4-yl)-carbamoyl]pyrazolo[1,5-a]pyrimidine] reads < 10 nM; that for `CNC(=O)c1nn2c(-c3ccc(C(F)(F)F)cc3)c(-c3ccccc3Cl)cnc2c1C(=O)NC1(C)CCS(=O)(=O)CC1` [Example B36], < 10 nM; that for `CC1(NC(=O)c2c(S(N)(=O)=O)nn3c(-c4ccc(Cl)cc4)c(-c4ccccc4Cl)cnc23)CC1` [Example B74], < 10 nM. Turning to `CN(C)NC(=O)c1c(S(N)(=O)=O)nn2c(-c3ccc(C(F)F)cc3)c(-c3ccccc3Cl)cnc12` [Example B84], the IC50 was in the range of 10 to 100 nM.

The target in the next experiment is T2, Human CB2 receptor (Homo sapiens, UniProt P34972).
T2 construct: expressed in transfected cells; host or cells: CHO (hCB2/CHO), membrane fraction
T2 sequence (P34972 whole entry): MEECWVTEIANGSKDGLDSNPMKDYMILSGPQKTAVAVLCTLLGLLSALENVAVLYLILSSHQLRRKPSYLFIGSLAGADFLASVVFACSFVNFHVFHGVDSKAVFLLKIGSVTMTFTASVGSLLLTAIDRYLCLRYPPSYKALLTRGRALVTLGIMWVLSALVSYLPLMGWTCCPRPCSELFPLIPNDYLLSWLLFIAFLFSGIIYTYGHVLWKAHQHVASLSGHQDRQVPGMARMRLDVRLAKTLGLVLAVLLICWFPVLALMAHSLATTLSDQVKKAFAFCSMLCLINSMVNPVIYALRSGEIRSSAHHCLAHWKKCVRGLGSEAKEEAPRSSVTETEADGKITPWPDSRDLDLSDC
Put plainly: Human CB2 receptor-binding assay (hCB2/CHO) for selectivity to CB1 receptors. The conditions noted are these: ratio of IC50 value for CB2/IC50 value for CB1. On the procedure: (1) Materials and Methods
as §1
b) Human CB2 receptor-binding assay: The binding assay was conducted in the same manner as described in Experiment 1, except that human CB2-expressing CHO cell line (hCB2/CHO) was used instead of hCB1 cell line. IC50 value of each test compound against the radioligand-binding to CB2 receptors was calculated in the manner as described in Experiment 1. Besides, selectivity to CB1 receptors was evaluated in terms of the ratio of IC50 value for CB2/IC50 value for CB1.
`NC(=O)C1(NC(=O)c2cnn3c(-c4ccc(Cl)cc4)c(-c4ccccc4Cl)cnc23)CCS(=O)(=O)CC1` [Example A3, 3-[N-(4-carbamoyl-1,1-dioxo-tetrahydrothiopyran-4-yl)carbamoyl]-6-(2-chlorophenyl)-7-(4-chlorophenyl)pyrazolo[1,5-a]pyrimidine]: the Selectivity is given as >500.
